Experimental data from ChEMBL document CHEMBL1201862, “PubChem BioAssay data set” (2004).
Activity calls are given as the source filed them.

Experiments:
Nonstructural protein 1 = Nonstructural protein 1 (Influenza A virus, UniProt Q194T2); type: functional, Influenza A virus (A/California/07/2009(H1N1))
[1] = biological target: T1, Short transient receptor potential channel 4 (Mus musculus, UniProt Q9QUQ5); test: mouse TRPC4 channel inhibitors, dose response, cell-based, HEK293 TRPC4/mu-opioid, Fluo-4 calcium (AID 434942); type: functional;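 note: potency of inhibitors blocking the TRPC4 calcium response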
T1 sequence (Q9QUQ5 whole entry): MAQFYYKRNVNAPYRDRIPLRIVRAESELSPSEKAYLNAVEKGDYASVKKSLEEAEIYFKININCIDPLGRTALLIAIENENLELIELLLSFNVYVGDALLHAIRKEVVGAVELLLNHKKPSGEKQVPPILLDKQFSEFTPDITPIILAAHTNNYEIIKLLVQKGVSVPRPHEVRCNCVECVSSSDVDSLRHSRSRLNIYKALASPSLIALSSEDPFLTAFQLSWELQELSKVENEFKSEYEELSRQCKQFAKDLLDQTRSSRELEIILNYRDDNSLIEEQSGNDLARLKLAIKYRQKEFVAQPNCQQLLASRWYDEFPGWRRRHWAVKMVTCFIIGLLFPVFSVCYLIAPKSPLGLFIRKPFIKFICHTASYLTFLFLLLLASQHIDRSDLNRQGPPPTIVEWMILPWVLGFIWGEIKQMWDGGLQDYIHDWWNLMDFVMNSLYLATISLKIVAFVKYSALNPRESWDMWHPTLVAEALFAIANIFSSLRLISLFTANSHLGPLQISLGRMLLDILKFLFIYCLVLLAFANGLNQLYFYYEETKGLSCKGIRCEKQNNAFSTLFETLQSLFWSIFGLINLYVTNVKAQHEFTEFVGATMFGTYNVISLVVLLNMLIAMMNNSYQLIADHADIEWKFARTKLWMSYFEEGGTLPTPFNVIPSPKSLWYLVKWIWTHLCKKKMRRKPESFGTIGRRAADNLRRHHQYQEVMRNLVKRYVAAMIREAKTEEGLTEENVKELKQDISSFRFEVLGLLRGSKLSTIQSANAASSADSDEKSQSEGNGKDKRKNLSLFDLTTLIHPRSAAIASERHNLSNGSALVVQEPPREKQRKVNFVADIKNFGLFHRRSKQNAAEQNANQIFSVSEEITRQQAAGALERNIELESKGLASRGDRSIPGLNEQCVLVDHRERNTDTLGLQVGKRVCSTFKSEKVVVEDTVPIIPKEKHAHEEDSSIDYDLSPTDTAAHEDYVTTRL

Fatty acid synthase [2] = biological target: T2, Fatty acid synthase (Homo sapiens, UniProt P49327); test: FAS thioesterase domain inhibitors, dose response, biochemical, kinetic fluorescence intensity (AID 624326); type: functional;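 note: rate of fluorescence rise from hydrolysis of a fluorogenic O-methyl fluorescein ester substrate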
Vero = Vero cell cytotoxicity, cytotoxicity control for flavivirus capping enzyme inhibitors (AID 588742); type: functional; settings: Chlorocebus sabaeus
Genome polyprotein = Genome polyprotein (dengue virus type 2, UniProt P29990); test: Dengue-2 NS5 methyltransferase inhibitors, primary screen, biochemical, confirmation dose response (AID 588689); type: functional
Fatty acid synthase [3] = biological target: T2, Fatty acid synthase; test: FAS thioesterase domain inhibitors, dose response, biochemical, endpoint fluorescence intensity, uHTS hits (AID 624327); type: functional;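 note: fluorescence from hydrolysis of an O-methyl fluorescein acyl ester substrate by the enzyme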
[4] = biological target: T1, Short transient receptor potential channel 4; test: mouse TRPC4 channel activators, dose response, cell-based, HEK293 TRPC4/mu-opioid, Fluo-4 calcium (AID 434937); type: functional
BJ [5] = test: cells; type: functional, cell-based; settings: Homo sapiens
[6] = cytotoxicity toward DRD oncogenic fibroblasts, dose response, cell-based, non-viral oncogenic, luminescence (AID 1934); type: functional; settings: Homo sapiens
[7] = cytotoxicity in HEK-293T cells, dose response, cytotoxicity control for TCR NF-kB inhibitor project, luminescence, T-cell screen hits (AID 489026); type: functional, cell-based;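 note: cells exposed to compound about 14 hours before the viability readout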
BJ [8] = test: cytotoxicity toward BJ-TERT fibroblasts, dose response, cell-based, RAS-independent, luminescence (AID 1933); type: functional; settings: Homo sapiens
BJ [9] = test: cytotoxicity toward BJ-TERT-LT-ST fibroblasts, dose response, cell-based, RAS-independent, luminescence (AID 1935); type: functional; settings: Homo sapiens;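 note: BJ fibroblasts immortalized with TERT plus LT and ST oncogenes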
[10] = Luminescence Cell-Based Dose Retest to Confirm Inhibitors of Cancer Stem Cells. [Related pubchem assays (depositor defined):AID2717, AID2721]; type: functional, Homo sapiens; settings: Homo sapiens
[11] = biological target: Heat shock protein HSP 90-alpha (Homo sapiens, UniProt P07900); type: functional, organism-based
[12] = biological target: Voltage-dependent T-type calcium channel subunit alpha-1H (Homo sapiens, UniProt O95180); type: functional;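 note: channel activity triggered by adding a high calcium stimulation buffer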
[13] = biological target: T3, Heat shock factor protein 1 (Mus musculus, UniProt P38532); test: HSF1 potentiators in luciferase reporter cells, confirmation, cell-based, NIH3T3, luminescence, dose retest (AID 435004); type: functional;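 note: stress induced by proteasome inhibitor MG132 added 30 min after compound; luciferase reporter driven by HSF1 response element in NIH3T3 cells; actives raise luminescence as potentiators of the MG132 stress response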
T3 sequence (P38532 whole entry): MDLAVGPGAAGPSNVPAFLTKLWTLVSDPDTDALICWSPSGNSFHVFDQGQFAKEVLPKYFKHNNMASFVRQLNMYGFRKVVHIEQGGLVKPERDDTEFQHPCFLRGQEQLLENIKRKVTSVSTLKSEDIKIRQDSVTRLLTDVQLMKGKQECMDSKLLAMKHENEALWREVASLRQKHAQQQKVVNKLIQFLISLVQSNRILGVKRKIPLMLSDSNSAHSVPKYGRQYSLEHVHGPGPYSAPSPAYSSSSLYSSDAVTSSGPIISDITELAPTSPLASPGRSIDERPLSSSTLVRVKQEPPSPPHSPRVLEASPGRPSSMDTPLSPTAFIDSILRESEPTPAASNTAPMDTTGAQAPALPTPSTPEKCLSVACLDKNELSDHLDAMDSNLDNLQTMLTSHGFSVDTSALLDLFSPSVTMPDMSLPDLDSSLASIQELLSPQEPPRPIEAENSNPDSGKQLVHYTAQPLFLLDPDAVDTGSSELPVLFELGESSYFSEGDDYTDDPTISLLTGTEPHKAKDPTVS

[14] = inhibitors of intracellular T. cruzi replication, confirmation, NIH3T3 host cells, beta-gal luminescence (AID 2044); type: functional, cell-based;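 note: intracellular parasites grown in NIH/3T3 mouse fibroblasts as host cells; luminescent beta-galactosidase reporter signal from transgenic T. cruzi replicating inside host cells; inhibitors lower the luminescence signal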
[15] = cytotoxicity toward NIH3T3 fibroblasts, dose response, counter-screen, cell-based, ATP luminescence, mouse fibroblasts (AID 2010); type: functional;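 note: cells exposed to compound for about 90 hours before reading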
[16] = biological target: T4, Calpain-2 catalytic subunit (Sus scrofa, UniProt P43367); test: pig calpain II inhibitor potency, dose response, biochemical, fluorogenic peptide substrate (AID 1420); type: functional
T4 sequence (P43367 whole entry): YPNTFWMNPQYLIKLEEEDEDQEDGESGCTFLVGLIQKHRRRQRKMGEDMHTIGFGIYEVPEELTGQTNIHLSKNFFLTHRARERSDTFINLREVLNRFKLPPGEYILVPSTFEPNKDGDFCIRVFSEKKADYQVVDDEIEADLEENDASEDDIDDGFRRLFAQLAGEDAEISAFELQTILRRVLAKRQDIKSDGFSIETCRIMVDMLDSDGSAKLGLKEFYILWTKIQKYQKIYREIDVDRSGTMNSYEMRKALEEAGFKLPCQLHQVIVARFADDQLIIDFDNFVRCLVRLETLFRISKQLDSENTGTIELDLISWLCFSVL

[17] = growth suppression of beta-catenin-knockout colon cells, dose response, cell-based, HCT116, human colon tumor (AID 1045); type: functional;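 note: HCT116 colon tumor cells with beta catenin knocked out; cells exposed to compound for 60 hours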
[18] = growth suppression of PTEN-null colon cells, dose response, cell-based, HCT116 PTEN knockout (AID 1047); type: functional;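 note: HCT116 colon tumor cells with PTEN knocked out; cells exposed to compound for 60 hours before readout; potency for loss of cell viability measured by luminescence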
INS1 = test: beta cell apoptosis inhibitors, cytokine rescue, dose response, luminescence, retest (AID 449756); type: functional, cell-based; settings: Rattus norvegicus;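 note: cell death triggered by IL-1 beta plus TNF-alpha plus IFN-gamma mixture; protective hits raise ATP signal compared with cytokine alone wells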
[19] = biological target: T5, Microphthalmia-associated transcription factor (Homo sapiens, UniProt O75030); test: TRPM1 promoter luciferase signal decrease, dose response, MITF inhibitor project, cell-based, SK-MEL-5, cherry-picked, set 3 (AID 493073); type: functional
T5 sequence (O75030 whole entry): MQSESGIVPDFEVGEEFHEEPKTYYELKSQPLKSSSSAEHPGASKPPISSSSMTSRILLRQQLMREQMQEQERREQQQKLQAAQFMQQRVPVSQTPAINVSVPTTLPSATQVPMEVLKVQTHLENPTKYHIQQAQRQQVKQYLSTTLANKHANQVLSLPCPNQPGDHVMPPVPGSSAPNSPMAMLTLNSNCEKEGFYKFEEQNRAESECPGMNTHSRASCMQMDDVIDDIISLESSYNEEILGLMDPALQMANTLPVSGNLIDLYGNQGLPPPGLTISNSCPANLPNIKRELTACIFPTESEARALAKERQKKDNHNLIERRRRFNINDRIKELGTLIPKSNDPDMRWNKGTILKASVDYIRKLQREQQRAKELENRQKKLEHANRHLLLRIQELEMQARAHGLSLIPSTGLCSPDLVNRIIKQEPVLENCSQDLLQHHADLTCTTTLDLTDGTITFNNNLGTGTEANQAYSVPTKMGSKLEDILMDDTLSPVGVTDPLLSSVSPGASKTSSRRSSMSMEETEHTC

Cytochrome P450 2C19 = Cytochrome P450 2C19 (Homo sapiens, UniProt P33261); test: Cytochrome panel assay with activity outcomes. Panel member name: p450-cyp2c19 Compounds with AC50 equal or less than 10 uM are considered active; type: functional; settings: read-out: AC50
Cytochrome P450 2C9 = Cytochrome P450 2C9 (Homo sapiens, UniProt P11712)

T2 sequence (P49327 whole entry, the tested form may be a part): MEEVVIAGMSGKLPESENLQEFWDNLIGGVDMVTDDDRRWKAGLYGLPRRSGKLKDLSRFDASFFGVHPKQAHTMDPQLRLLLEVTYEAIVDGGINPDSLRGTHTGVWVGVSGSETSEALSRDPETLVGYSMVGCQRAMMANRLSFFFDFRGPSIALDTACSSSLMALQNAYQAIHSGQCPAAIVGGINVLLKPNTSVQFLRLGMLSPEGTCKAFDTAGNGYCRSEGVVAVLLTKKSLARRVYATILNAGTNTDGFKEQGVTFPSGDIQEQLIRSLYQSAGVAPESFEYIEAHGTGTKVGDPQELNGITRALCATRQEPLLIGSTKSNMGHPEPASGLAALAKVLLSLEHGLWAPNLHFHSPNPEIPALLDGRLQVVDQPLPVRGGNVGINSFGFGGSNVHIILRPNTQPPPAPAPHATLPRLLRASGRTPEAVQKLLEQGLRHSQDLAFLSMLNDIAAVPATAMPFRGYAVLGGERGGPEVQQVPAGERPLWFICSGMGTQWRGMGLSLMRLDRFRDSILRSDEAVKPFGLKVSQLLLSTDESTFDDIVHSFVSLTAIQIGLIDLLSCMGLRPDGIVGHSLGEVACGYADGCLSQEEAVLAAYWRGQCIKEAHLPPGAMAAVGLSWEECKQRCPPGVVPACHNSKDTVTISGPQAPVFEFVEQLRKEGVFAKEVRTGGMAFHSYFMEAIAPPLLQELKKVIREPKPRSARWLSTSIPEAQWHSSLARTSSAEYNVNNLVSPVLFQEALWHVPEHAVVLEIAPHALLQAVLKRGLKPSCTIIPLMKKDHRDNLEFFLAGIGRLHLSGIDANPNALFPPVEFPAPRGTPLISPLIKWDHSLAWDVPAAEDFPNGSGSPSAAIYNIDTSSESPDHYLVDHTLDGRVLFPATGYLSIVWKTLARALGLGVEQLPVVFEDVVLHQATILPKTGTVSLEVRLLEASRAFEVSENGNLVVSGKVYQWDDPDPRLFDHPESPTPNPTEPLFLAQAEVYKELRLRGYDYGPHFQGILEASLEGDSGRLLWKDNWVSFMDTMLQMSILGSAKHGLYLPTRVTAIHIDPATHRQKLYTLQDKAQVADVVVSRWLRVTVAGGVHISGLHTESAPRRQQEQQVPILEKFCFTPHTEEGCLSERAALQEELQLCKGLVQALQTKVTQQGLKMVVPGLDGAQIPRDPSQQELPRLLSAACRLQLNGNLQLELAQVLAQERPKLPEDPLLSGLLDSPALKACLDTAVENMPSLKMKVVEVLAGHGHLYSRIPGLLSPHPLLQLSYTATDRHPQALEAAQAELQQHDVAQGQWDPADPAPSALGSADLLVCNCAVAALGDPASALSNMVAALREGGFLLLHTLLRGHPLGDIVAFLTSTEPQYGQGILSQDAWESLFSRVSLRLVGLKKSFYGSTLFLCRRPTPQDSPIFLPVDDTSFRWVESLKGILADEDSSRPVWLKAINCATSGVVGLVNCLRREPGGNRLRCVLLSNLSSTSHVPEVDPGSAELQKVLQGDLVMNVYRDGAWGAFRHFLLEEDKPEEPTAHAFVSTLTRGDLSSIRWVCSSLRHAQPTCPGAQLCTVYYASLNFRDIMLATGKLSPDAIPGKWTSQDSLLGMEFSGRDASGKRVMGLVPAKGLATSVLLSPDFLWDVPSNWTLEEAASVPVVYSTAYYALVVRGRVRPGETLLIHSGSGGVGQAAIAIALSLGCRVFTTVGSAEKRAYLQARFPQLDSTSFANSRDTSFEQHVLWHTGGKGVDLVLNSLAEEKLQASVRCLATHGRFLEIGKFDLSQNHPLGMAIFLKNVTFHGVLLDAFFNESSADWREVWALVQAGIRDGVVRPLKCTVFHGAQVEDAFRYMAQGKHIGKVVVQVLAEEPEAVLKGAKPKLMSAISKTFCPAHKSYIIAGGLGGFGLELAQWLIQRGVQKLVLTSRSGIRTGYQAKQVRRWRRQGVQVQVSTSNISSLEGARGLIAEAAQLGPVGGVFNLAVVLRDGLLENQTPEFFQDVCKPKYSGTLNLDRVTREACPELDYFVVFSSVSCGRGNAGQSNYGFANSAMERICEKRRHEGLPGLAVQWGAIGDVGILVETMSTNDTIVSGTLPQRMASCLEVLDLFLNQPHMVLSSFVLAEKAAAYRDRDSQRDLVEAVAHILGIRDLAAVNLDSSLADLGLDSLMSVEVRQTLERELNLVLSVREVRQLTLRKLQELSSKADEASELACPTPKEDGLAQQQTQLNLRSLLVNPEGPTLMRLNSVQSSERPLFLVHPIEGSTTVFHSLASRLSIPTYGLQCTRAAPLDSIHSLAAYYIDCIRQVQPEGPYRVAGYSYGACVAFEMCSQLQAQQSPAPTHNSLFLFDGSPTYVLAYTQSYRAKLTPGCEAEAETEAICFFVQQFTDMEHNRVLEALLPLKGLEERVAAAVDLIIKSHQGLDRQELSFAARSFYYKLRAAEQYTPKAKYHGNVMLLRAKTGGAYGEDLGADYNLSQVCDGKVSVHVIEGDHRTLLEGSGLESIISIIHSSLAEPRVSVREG
Chain of Nonstructural protein 1 (Q194T2 whole entry): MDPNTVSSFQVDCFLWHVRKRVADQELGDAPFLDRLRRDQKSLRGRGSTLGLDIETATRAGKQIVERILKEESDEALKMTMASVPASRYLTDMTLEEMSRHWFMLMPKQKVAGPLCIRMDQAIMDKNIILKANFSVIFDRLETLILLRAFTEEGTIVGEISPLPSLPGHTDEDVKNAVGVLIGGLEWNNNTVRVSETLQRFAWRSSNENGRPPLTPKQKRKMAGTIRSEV
Chain of Voltage-dependent T-type calcium channel subunit alpha-1H (O95180 whole entry): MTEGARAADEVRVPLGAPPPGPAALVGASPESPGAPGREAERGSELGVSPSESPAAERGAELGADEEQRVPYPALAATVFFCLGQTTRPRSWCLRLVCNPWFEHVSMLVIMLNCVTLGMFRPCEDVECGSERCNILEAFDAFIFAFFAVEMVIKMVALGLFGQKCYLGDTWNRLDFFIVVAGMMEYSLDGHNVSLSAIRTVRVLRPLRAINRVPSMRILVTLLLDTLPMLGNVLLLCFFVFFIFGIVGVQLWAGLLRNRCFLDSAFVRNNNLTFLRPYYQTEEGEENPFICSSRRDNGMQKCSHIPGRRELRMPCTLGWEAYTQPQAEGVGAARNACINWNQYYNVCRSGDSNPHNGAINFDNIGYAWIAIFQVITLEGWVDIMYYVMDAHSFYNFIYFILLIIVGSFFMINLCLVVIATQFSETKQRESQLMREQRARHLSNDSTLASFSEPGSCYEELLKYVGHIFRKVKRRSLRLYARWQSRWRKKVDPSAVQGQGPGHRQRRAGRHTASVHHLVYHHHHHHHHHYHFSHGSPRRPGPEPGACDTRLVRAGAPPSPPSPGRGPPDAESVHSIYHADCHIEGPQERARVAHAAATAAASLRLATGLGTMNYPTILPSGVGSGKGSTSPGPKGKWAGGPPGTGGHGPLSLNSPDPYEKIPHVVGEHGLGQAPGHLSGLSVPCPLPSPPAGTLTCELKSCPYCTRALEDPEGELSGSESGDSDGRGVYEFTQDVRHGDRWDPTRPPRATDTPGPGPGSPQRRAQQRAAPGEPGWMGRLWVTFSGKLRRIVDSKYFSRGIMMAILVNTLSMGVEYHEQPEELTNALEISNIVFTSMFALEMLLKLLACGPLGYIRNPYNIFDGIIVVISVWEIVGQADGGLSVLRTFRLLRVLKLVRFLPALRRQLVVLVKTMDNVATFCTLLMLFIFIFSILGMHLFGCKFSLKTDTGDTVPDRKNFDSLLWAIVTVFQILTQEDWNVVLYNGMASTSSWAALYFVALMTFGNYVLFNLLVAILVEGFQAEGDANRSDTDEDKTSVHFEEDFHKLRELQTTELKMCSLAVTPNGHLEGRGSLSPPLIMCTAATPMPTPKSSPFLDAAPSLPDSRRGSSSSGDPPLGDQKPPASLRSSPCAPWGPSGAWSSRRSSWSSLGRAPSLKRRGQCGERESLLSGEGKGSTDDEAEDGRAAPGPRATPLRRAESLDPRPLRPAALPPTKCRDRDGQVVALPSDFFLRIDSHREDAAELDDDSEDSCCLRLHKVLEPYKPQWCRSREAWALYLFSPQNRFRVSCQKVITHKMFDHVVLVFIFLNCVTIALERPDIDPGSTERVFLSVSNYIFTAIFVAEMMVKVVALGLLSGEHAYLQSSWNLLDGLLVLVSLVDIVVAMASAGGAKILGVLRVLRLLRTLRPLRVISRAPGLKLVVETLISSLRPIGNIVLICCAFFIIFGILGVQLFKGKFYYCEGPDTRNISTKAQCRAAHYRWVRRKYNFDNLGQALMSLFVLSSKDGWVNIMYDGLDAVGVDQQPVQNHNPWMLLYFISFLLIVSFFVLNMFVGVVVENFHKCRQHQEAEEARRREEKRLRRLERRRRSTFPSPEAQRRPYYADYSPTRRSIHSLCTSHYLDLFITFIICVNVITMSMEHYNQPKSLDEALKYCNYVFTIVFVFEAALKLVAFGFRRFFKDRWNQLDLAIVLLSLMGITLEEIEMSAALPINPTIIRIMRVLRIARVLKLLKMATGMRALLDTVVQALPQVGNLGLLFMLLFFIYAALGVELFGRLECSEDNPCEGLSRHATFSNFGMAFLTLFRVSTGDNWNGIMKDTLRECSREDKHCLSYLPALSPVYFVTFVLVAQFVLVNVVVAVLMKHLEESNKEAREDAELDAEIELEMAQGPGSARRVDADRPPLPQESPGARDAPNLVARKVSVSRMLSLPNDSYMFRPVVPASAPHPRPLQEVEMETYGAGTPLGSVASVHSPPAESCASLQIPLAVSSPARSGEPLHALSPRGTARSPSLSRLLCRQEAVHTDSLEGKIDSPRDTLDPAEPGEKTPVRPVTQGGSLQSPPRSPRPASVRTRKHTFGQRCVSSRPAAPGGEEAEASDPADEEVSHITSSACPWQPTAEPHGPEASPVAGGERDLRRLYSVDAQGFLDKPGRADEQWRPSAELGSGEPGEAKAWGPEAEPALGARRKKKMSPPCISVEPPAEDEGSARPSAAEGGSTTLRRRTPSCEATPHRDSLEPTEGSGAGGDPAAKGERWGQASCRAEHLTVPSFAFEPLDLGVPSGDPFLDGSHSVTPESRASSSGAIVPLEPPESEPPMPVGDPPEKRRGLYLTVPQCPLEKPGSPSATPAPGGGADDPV

O=C(CN1CC(=O)Oc2ccccc21)NCc1ccco1
IC50 (Nonstructural protein 1): 6.58 µM (active)

CCCc1nc2oc3c(NCCN(C)C)ncnc3c2c2c1CCCC2
EC50 [1]: 1.68 µM (active)

Cc1ccc(S(=O)(=O)N2[C@@H](c3ccc(C(C)(C)C)cc3)C(C(=O)O)=CC[C@H]2c2ccc(Cl)cc2)cc1
IC50 (Fatty acid synthase [2]): 11.3 µM (active)
CC50 (Vero): > 40 µM (active)
IC50 (Genome polyprotein): 39.6 µM (active)
IC50 (Fatty acid synthase [3]): 10.9 µM (active)

CCOC(=O)C1(CC2CC2)CCN(Cc2ccc(O)c(Cl)c2)CC1
EC50 [1]: 0.376 µM (active)
EC50 [4]: 0.841 µM (active)

CCCCNC(=Nc1ccc(Cl)cc1)c1cccnc1
EC50 [1]: 7.5 µM (active)

OC1(c2ccccc2)C[N+](c2ccccc2)=C2SCCN21 (centres undefined)
EC50 [1]: 1.5 µM (active)
EC50 [4]: 1.88 µM (active)

Cc1ccc(COC(=O)c2cc([N+](=O)[O-])ccc2N2CCOCC2)cc1
IC50 (Fatty acid synthase [2]): 9.01 µM (active)
EC50 (BJ [5]): 11 µM (inconclusive)
EC50 [6]: 0.529 µM (inconclusive)
IC50 [7]: > 80 µM (inactive)
EC50 (BJ [8]): 0.223 µM (active)
EC50 (BJ [9]): 0.127 µM (inconclusive)
IC50 (Fatty acid synthase [3]): 10.3 µM (active)

COc1ccc(C(C)(C)C)cc1NC(=O)Nc1ccc2c(c1)OCO2
AC50 [10]: 6.11 µM (active)
AC50 [11]: 7.91 µM (active)

COc1ccc(N2CCN(C(=O)c3cccc(Cn4cc(Cl)cn4)c3)CC2)cc1
IC50 (Nonstructural protein 1): > 100 µM (active)

CCOc1ccccc1NS(=O)(=O)c1ccc(-c2cnc(C3CC3)o2)cc1
IC50 [7]: > 80 µM (inactive)

O=C(Nc1ccn(Cc2ccccc2F)n1)c1ccc(COc2ccc(Cl)cc2Cl)o1
AC50 [10]: 2.03 µM (active)
EC50 [12]: 10.3 µM (active)
EC50 [13]: 20.8 µM (active)

Cc1cc(C)cc(Nc2c([N+](=O)[O-])nn(-c3ccc(Cl)cc3)[n+]2[O-])c1
IC50 (Nonstructural protein 1): > 100 µM (active)
EC50 [14]: 0.387 µM (active)
EC50 [15]: > 60 µM (not active)

Cc1ccc(C)c(OCCCC(=O)Nc2nccs2)c1
EC50 [12]: 3.06 µM (active)
IC50 [16]: > 50 µM (not active)

Cc1ccc(NS(=O)(=O)c2ccc(N3CCN(c4ccc(O)cc4)CC3)c([N+](=O)[O-])c2)c(C)c1
AC50 [11]: 4.4 µM (active)

Cc1ccc(-c2cc(C(=O)N3N=C(C(F)F)CC3(O)C(F)F)c3ccccc3n2)cc1C (centres undefined)
AC50 [10]: 4.73 µM (active)
AC50 [11]: 6.22 µM (active)
EC50 [13]: 188 µM (active)
EC50 [17]: 39.4 µM (active)
EC50 [14]: 2.45 µM (active)
EC50 [15]: > 30 µM (not active)
EC50 [18]: 38.6 µM (active)

CCN(C(=O)c1c(-c2ccccc2Cl)noc1C)C1CCCCC1
EC50 [1]: 9.44 µM (active)

CC(C(=O)N(C)C1CCS(=O)(=O)C1)N1C(=O)/C(=C/c2ccco2)SC1=S (centres undefined)
CC50 (Vero): 35.4 µM (active)

Cc1cc(C(C)(C)C)cc(C)c1C[n+]1ccc2ccccc2c1
AC50 (INS1): 1.45 µM (active)
IC50 [7]: > 80 µM (inactive)

CCOC(=O)CC1=NN(c2ccccc2)C(=O)/C1=C\c1ccc(N(C)C)cc1
IC50 (Nonstructural protein 1): 15.7 µM (active)

COc1ccc(SN=C2C(C)=CC(=O)C=C2C)cc1
AC50 [11]: 6.51 µM (active)

Cc1cccc(Nc2nc(N)c([N+](=O)[O-])c(N3CCCC(C)C3)n2)c1 (centres undefined)
AC50 [11]: 4.6 µM (active)

O=C(Nc1ccc(OC(F)(F)F)cc1)c1n[nH]cc1[N+](=O)[O-]
AC50 [19]: 0.601 µM (active)

C[C@@]12C(=O)Nc3ccc(F)cc3C(=O)N1[C@H]1c3ccccc3OC[C@@H]1[C@@H]2c1ccccc1
AC50 [11]: 5.82 µM (active)

COc1ccc2c(c1)[C@H]1[C@H](CO2)[C@H](c2ccccc2)[C@]2(C)C(=O)Nc3ccc(Cl)cc3C(=O)N12
AC50 [11]: 3.14 µM (active)

S=c1sscc1-c1ccccc1
IC50 (Nonstructural protein 1): 32.7 µM (active)

O=c1c2c(-c3ccccc3)csc2ncn1/N=C/c1cccc([N+](=O)[O-])c1O
EC50 [1]: 10.6 µM (active)
EC50 [4]: 9.44 µM (active)

Cc1cccn2c(=O)c(/C=N/O)c(N3CCCC3)nc12
AC50 (Cytochrome P450 2C19): 31.6 µM (inconclusive)
EC50 [1]: 1.88 µM (active)
AC50 (Cytochrome P450 2C9): inconclusive
